Assays:
[1] = In-vivo delivery of paclitaxel from polyacrylic acid-based coated balloon catheter; set-up: species or system pig; details: for Amount of paclitaxel released in bloodstream: loaded minus extracted; for Amount of paclitaxel extracted from balloon after delivery: polyacrylic acid-based coated balloon catheter
Experimental: A 9.8 mg/ml solution of radio-labeled paclitaxel in chloroform is prepared. A total of 50 μl of the solution is applied via pipet to a balloon catheter having a polyacrylic acid-based coating. The paclitaxel from the coated balloon catheter is then released in-vivo to porcine arteries. After release for a predetermined amount of time, the paclitaxel remaining in the coating is extracted using two sequential ethanol washes. The amount of paclitaxel released in the pig bloodstream, as calculated from the amount of paclitaxel loaded into the coating minus that extracted from the coating after delivery, is shown in Table II.

[2] = Paclitaxel content of polyurethane coated stents by extraction in dichloromethane; assay type: physicochemical; details: 30 mg/ml paclitaxel concentration
Experimental: Slotted tube stainless steel stents are coated with polyurethane by spraying a 1 wt % solution of CHRONOFLEX® polyurethane (made by CT Biomaterials) in tetrahydrofuran directly onto the stent surface. The coated stents are dried in a vacuum oven for three hours at 70° C.
Each polyurethane coated stent is placed in a vial, which is filled to maximum volume (1.5 ml) with a solution of paclitaxel in ethanol, and sealed. The stent is stored in the vial for three days at room temperature. The stent is then removed from the vial and dried for one hour at 65° C.
The above procedure is conducted using solutions of varying concentrations. Each stent is analyzed for paclitaxel content by extraction in dichloromethane solvent. Samples 1 and 2 were obtained using a paclitaxel concentration of 10 mg/ml, samples 3 and 4 using a 20 mg/ml solution and sample 5 and 6 using a 30 mg/ml solution.
Seven polyurethane coated stents are loaded using a 30 mg/ml paclitaxel solution, removed and dried as set forth above. Paclitaxel from four of the stents is extracted in dichloromethane solvent.

[3] = Saturation concentration of paclitaxel in ethanol; assay type: physicochemical
Experimental: Nevertheless, the 30 mg/ml paclitaxel concentration is chosen for release studies as it produces the maximum paclitaxel loading (21-23%), while still being sufficiently below the saturation concentration for paclitaxel in ethanol (39 mg/ml).

% of paclitaxel released in bloodstream ([1]; 1 minute in bloodstream): 63%
Amount of paclitaxel released in bloodstream ([1]; 1 minute in bloodstream): 307 µg
Amount of paclitaxel extracted from balloon after delivery ([1]; 1 minute in bloodstream): 182 ± 1 µg
% of paclitaxel released in bloodstream ([1]; 5 minutes in bloodstream): 68%
Amount of paclitaxel released in bloodstream ([1]; 5 minutes in bloodstream): 330 µg
Amount of paclitaxel extracted from balloon after delivery ([1]; 5 minutes in bloodstream): 160 ± 30 µg
maximum paclitaxel loading [2]: 21-23%
saturation concentration for paclitaxel in ethanol [3]: 39 mg/mL
SMILES: CC(=O)O[C@H]1C(=O)[C@@]2(C)[C@H]([C@H](OC(=O)c3ccccc3)[C@]3(O)C[C@H](OC(=O)[C@H](O)[C@@H](NC(=O)c4ccccc4)c4ccccc4)C(C)=C1C3(C)C)[C@]1(OC(C)=O)CO[C@@H]1C[C@@H]2O [paclitaxel]
